Results reported in US4079177A, “Clavulanic acid carbamates” (Beecham Group Limited, priority 1975, dated 1978).

Tests used:
Klebsiella aerogenes E70 = assay: Minimum inhibitory concentration (mic), synergistical activity against β-lactamase producing organisms; type: cell-based; conditions: substance alone
Description: (§1) The minimum inhibitory concentrations (mic) of ampicillin N-methylcarbamoylclavulanic acid, and mixtures of ampicillin and N-methylcarbamoylclavulanic acid were determined against 4 β-lactamase producing organisms.
(§2) MIC's (in μg/ml) of Ampicillin and N-methylcarbamoylclavulanic acid
(§3) combinations thereof against 4 β-lactamase producing organisms.

[1] = tested on: Staphylococcus aureus Russell; assay: as above; type: cell-based; conditions: substance alone
Description: as §1, §2, §3

Escherichia coli JT4 = assay: as above; type: cell-based; conditions: substance alone
Description: as §1, §2, §3

Proteus mirabilis C889 = assay: as above; type: cell-based; conditions: substance alone
Description: as §1, §2, §3

[2] = Stability of n.m.r. solution (D2O); type: physicochemical
Description: n.m.r. (D2 O) 2.88 (3H,s, NCH3) 3.20 (1H,d, J 18Hz, 6β-CH) 3.70 (1H,dd, J 18Hz J' 3Hz 6α-CH) 5.7δ (1H,d, J 3Hz, 5-CH); the other protons were obscured by the water peak.

Row | SMILES | MIC (Klebsiella aerogenes E70) [µg/mL] | MIC [1] [µg/mL] | MIC (Escherichia coli JT4) [µg/mL] | MIC (Proteus mirabilis C889) [µg/mL] | degradation of the n.m.r. solution [2]
1 | CC1(C)S[C@@H]2[C@H](NC(=O)[C@H](N)c3ccccc3)C(=O)N2[C@H]1C(=O)O [Ampicillin, ampicillin, reference compound] | 250 | 500 | > 5000 | > 500 | –
2 | CNC(=O)OC/C=C1\O[C@@H]2CC(=O)N2[C@H]1C(=O)O [N-methylcarbamoylclavulanic acid] | 500 | 250 | > 500 | > 500 | –
3 | CNC(=O)OC/C=C1\O[C@@H]2CC(=O)N2[C@H]1C(=O)O [Sodium N-methylcarbamoylclavulanate] | – | – | – | – | signs of rapid degradation
